Source: patent publication US7396944B2, “Thiophene derivatives, their manufacture and use as pharmaceutical agents” (Hoffmann-La Roche Inc., priority 2004, dated 2008)
Read-outs that look alike come from different tables or passages of the source.

What was measured:
[1] = tested on: HT-29 cells (human colon carcinoma cell line); test: MTT assay on HT-29 human colon carcinoma cell line; format: cell-based; settings: MTT assay after 5 days, read-out: IC90 HT29
Procedure: To show the activity of the compounds according to this invention, their effects on a human colon carcinoma cell line was evaluated using a standard MTT-assay. MTT (3-(4,5-dimethylthiazol-2-yl)-2,5-diphenyl tetrazolium bromide) is widely used for the quantitative determination of cytotoxic effects or in vitro chemosensitivity of tumor cells. The assay is based on the cleavage of the yellow tetrazolium salt (MTT) to purple formazan crystals by metabolic active cells. For details, see Rubinstein, L. V., et al., J. Natl. Cancer Inst. 82 (1990) 1113-1118.
We proceeded as follows: HT-29 cells (human colon carcinoma cell line, ATCC-No. HTB-38) were cultivated in RPMI 1640 medium with GlutaMAX™ I (Invitrogen, Cat-No. 61870-010), 2.5% fetal calf serum (FCS, Sigma Cat-No. F4135 (FBS)), 2 mM glutamine, 100 units/ml penicillin, 100 μg/ml streptomycin (=Pen/Strep from Invitrogen Cat. No. 15140). For the assay the cells were seeded in 384 well plates, 900 cells per well, in the same medium. At the next day, the compounds (dissolved 10 mM in DMSO) were added in various concentrations ranging from 30 μM to 1.5 nM. After 5 days, the MTT assay was done mainly according to the instructions of the manufacturer (Cell proliferation kit I, MTT, from Roche Molecular Biochemicals). In brief: MTT labeling reagent was added to a final concentration of 0.5 mg/ml, added and incubated for 4 hrs at 37° C., 5% CO2. During this incubation time purple formazan crystals are formed. After addition of the solubilization solution (20% Sodium Dodecyl Sulfate (SDS) in 0.02 M HCl) the plates were incubated overnight at 37° C., 5% CO2. After careful mixing, the plates were measured in Victor 2 (scanning multiwell spectrophotometer, Wallac) at 550 nm.
A decrease in number of living cells results in a decrease in the total metabolic activity in the sample. The decrease directly correlates to the amount of purple colour resulting from the solubilization of the purple formazan crystals. Determination of IC90 was done using XL-fit (XLfit software (ID Business Solution Ltd., Guilford, Surrey, UK)).

recombinant HDAC-1 = biological target: T1, recombinant HDAC-1 (Homo sapiens, UniProt Q13547); test: HDAC biochemical quench assay; settings: recombinant HDAC-1 purified from HEK 293 cells, histone H4 peptide substrate 1 μM, 90 min
T1 construct: made in house; host or cells: HEK 293 cells (ATCC-No. CRL 1573)
T1 sequence (Q13547 whole entry, species assumed): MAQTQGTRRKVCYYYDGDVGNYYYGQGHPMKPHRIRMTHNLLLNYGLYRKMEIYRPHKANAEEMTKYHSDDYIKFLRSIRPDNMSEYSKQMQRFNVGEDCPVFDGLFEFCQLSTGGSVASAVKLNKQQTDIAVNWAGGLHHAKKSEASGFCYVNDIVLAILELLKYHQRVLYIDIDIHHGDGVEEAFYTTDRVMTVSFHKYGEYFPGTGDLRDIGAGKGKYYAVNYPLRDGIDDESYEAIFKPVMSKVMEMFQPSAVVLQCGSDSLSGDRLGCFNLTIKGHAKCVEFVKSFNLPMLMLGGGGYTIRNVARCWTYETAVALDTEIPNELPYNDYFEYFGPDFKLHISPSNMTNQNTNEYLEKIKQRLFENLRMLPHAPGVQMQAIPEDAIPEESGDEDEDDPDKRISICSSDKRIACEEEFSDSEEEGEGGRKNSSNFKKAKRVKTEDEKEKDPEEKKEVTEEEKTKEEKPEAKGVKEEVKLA
From the text: The function of histone deacetylase (HDAC) is the deacetylation of lysines in e.g. histone H4. A peptide of 17 amino acids derived from histone H4 was labeled with tetramethylrhodamine (TAMRA, fluorophore, Invitrogen) at the C-terminus and QSY-7™ (quencher dye, Invitrogen) at the N-terminus and was used as a substrate (TAMRA-first 17 aa of histone H4-QSY7). Following deacetylation by HDAC, the enzyme Lys C is able to cleave the peptide after lysine. […] Inhibition of HDAC by compounds results in low signals because Lys C could not cleave the substrate and the quench effect persists.
For dose response curves, 10 concentrations were diluted 1:3 starting at 30 μM. 10 μl compound dilution were put into each well of a 384 well plate. 10 μl HDAC were added (recombinant HDAC-1 purified from HEK 293 cells (human embryonic kidney cell line transformed by Adenovirus 5 fragments, ATCC-No. CRL 1573); enzyme activity has to be assessed for each preparation). 10 μl peptide substrate was added (1 μM final concentration, derived from 1 mM stock solution diluted 1:1000 in test buffer). After 90 min incubation at room temperature, the reaction was stopped by addition of 20 μl test buffer including 3 μg/ml Lys C and 0.075% Sodium Dodecyl Sulfate (SDS). After overnight incubation the fluorescence signal of TAMRA was measured (Victor 2 from Wallac, absorption 544 nm, emission 590 nm). The O.D. of DMSO (dimethylsulfoxide)-treated control wells is 100%, the % inhibition of compound treated wells is calculated in relation to 100%. Based on 10 concentrations an IC50 curve is generated by using XLfit3 (XLfit software (ID Business Solution Ltd., Guilford, Surrey, UK)).
Test buffer used: a mixture of 10 mM 4-(2-hydroxyethyl)-1-piperazineethanesulfonic acid (HEPES) pH8, 10 mM NaCl, 10% Glycerol, 0.005% Triton X100™, 0.1 mM ethylenediaminetetraacetic acid (EDTA), 0.1 mM Tris(2-carboxyethyl)phosphine (TCEP). Used plates: 384 well plates (black, Greiner, 781077).

| SMILES | IC90 ([1]; Homo sapiens, 120 h) [nM] | IC50 (recombinant HDAC-1) [nM] | IC90 [1] [nM] |
| --- | --- | --- | --- |
| CC(NC(=O)c1ccc(C(=O)NO)s1)c1cccc(-c2ccc(F)cc2)c1 (stereo not drawn) [Example 2-8, Thiophene-2,5-dicarboxylic acid 2-{[1-(4′-fluoro-biphenyl-3-yl)-ethyl]-amide} 5-hydroxyamide] | 100 to 500 | 2.52 | – |
| CC(NC(=O)c1ccc(C(=O)NO)s1)c1ccc(N2CCCCC2)cc1 (stereo not drawn) [Example 4-3, Thiophene-2,5-dicarboxylic acid 2-hydroxyamide 5-{[1-(4-piperidin-1-yl-phenyl)-ethyl]-amide}] | – | < 3 | – |
| CC(NC(=O)c1ccc(C(=O)NO)s1)c1ccc(-c2ccc(N(C)C)cc2)cc1 (stereo not drawn) [Example 1-2, Thiophene-2,5-dicarboxylic acid 2-{[1-(4′-dimethylamino-biphenyl-4-yl)-ethyl]-amide} 5-hydroxyamide] | – | 3 to 6 | – |
| CC(NC(=O)c1ccc(C(=O)NO)s1)c1ccccc1 (stereo not drawn) [Reference compound, reference compound] | 1120 | 3.12 | – |
| C[C@@H](NC(=O)c1ccc(C(=O)NO)s1)c1ccc(N2CCOCC2)cc1 [Example 4-1, (R)-Thiophene-2,5-dicarboxylic acid 2-hydroxyamide 5-{[1-(4-morpholin-4-yl-phenyl)-ethyl]-amide}] | – | 3 to 6 | – |
| COc1ccccc1-c1ccc(C(C)NC(=O)c2ccc(C(=O)NO)s2)s1 (stereo not drawn) [Example 3-1, Thiophene-2,5-dicarboxylic acid 2-hydroxyamide 5-({1-[5-(2-methoxy-phenyl)-thiophen-2-yl]-ethyl}-amide)] | – | – | 110 |
| CC(NC(=O)c1ccc(C(=O)NO)s1)c1cccc(-c2cn[nH]c2)c1 (stereo not drawn) [Example 2-18, Thiophene-2,5-dicarboxylic acid 2-hydroxyamide 5-({1-[3-(1H-pyrazol-4-yl)-phenyl]-ethyl}-amide)] | – | < 3 | – |
| CC(NC(=O)c1ccc(C(=O)NO)s1)c1ccc(-c2ccccc2F)s1 (stereo not drawn) [Example 3-12, Thiophene-2,5-dicarboxylic acid 2-({1-[5-(2-fluoro-phenyl)-thiophen-2-yl]-ethyl}-amide) 5-hydroxyamide] | – | 4.11 | – |
| CC(NC(=O)c1ccc(C(=O)NO)s1)c1ccc(-c2cccc(F)c2)s1 (stereo not drawn) [Example 3-9, Thiophene-2,5-dicarboxylic acid 2-({1-[5-(3-fluoro-phenyl)-thiophen-2-yl]-ethyl}-amide) 5-hydroxyamide] | – | 3 to 6 | – |
| CC(NC(=O)c1ccc(C(=O)NO)s1)c1cccc(-c2cc3ccccc3s2)c1 (stereo not drawn) [Example 2-14, Thiophene-2,5-dicarboxylic acid 2-{[1-(3-benzo[b]thiophen-2-yl-phenyl)-ethyl]-amide} 5-hydroxyamide] | – | – | 70 |
